Legend:
Format in all cases: cell-based
S. haemolyticus 114126 = test: BCT test (bacterial contact time), 120 s, log reduction / effect fraction; CI by Compusyn; details: Staphylococcus haemolyticus, 114126, 2 min, contact 120 s, 25% EtOH; for log reduction at 0.5 % strength: dose 0.5% w/v
Description: S. haemolyticus: Suspensions of the S. haemolyticus 114126 strain, isolated from skin, were prepared as follows: Stock cultures (stored at −80° C.) were thawed and sub-cultured onto TSA-TW80 agar plate media, and incubated at 37° C. for 24 h to obtain single colonies. Single colonies of the primary cultures were streaked onto fresh TSA-TW80 plates and incubated at 37° C. for 24 h to prepare secondary cultures. Single colonies of secondary cultures were picked and used to inoculate 50 mL of BHI-TW80 broth. The inoculated broth was incubated at 37° C. at 180 rpm for 18 h. Aliquots (0.5 ml) of the 18 h culture were inoculated into 50 ml of fresh BHI-TW80 broth, and incubated at 37° C. at 180 rpm for approximately 3 hours. When the OD 600 nm value of the broth reached 1-2, cells were harvested by centrifugation at 5000 rpm for 10 min, and then resuspended in fresh BHI-TW80 broth at a concentration of 1-5×10^8 CFU/mL. This suspension was used as the bacterial suspension for the BCT test.
(§1) BCT Test: Test compositions at a range of concentrations (either combinations of more than one perfume ingredient, and comparative compositions comprising the single perfume ingredients) were prepared in ethanol. Five replicates of each test composition were added into 96-well microtiter plates (120 μl per well), with row B containing control compositions containing the ethanol solution alone. 120 μl of bacterial cell suspensions at a concentration of approximately 1×10^8 bacteria per mL (as prepared above) were added to each well of the microtiter plate. The bacterial suspensions were incubated with the test solutions for 45, 60, or 120 seconds. Following the incubation of the bacterial suspensions with the test solutions, serial dilutions of the bacterial suspensions were generated (three serial 1:10 dilutions, followed by 17 serial 1:2 dilutions), in multiwell microtiter plates.
(§2) Each plate was sealed and incubated at 37° C. under agitation (180 rpm). After incubation, the turbidity of the wells (OD600 nm) was determined using a Tecan microplate reader. Turbid wells were regarded as positive growth, due to the presence of viable cells. The total number of viable cells (log CFU) for each sample was calculated. And the log reduction for each test composition at the final concentration (dose) was calculated against the control sample of the ethanol solution.
(§3) Determination of Synergy via the Combination Index (CI): The CI was calculated using Compusyn software (ComboSyn, Inc., as created by Dr. Dorothy Chou in 2005), according to the manufacturer's instructions. The concentration of each test composition (combinations of more than one perfume ingredient, and comparative compositions comprising the single perfume ingredients used to generate the combination) and their corresponding effect fraction was entered, and the corresponding CI calculated.
(§4) When the calculated CI values were less than 0.9, the combination of perfume ingredients was regarded as having synergistic effect. When the calculated CI was between 1.0 a 0.9, the combination of perfume ingredients was regarded as having an additive effect. When the calculated CI was greater than 1.0, the combination of perfume ingredients was regarded as having an antagonistic effect.

C. xerosis ATCC 373 = test: as above; details: Corynebacterium xerosis, ATCC373, 2 min, contact 120 s, 25% EtOH; for log reduction at 0.5 % strength: dose 0.5% w/v; for log reduction at 0.75 % strength: dose 0.75% w/v; for log reduction at 1 % strength: dose 1.0% w/v
Description: C. xerosis: Suspensions of the C. xerosis ATCC 373 strain were prepared as follows: Stock cultures (stored at −80° C.) were thawed and subcultured onto Tryptic Soy Agar media with Tween 80 (TSA-TW80), and incubated at 37° C. for 48 h. The primary cultures were subcultured onto TSA-TW80 again, to prepare the secondary cultures. Single colonies of the secondary cultures were selected and used to inoculate 30 ml brain heart infusion broth with Tween 80 (BHI-TW80). The inoculated broth was incubated at 37° C. at 180 rpm for 24 h. Aliquots (1 ml) of the 24 h culture were inoculated into 30 ml of fresh BHI-TW80 broth media, and incubated at 37° C. at 180 rpm for 48 h. Aliquots (2-3 ml) of the 48 h culture were inoculated into four 50 ml of fresh BHI-TW80 broth media, and incubated at 37° C. 180 rpm for 4-6 hrs. When the OD 600 nm reached the target value of 1.6, cells were harvested by centrifugation at 5000 rpm for 10 min, and then resuspended in the same fresh BHI-TW80 at a concentration of 10^9 to 10^10 cfu/mL. This suspension was used as the bacterial suspension for the BCT test.
as §1, §2, §3, §4

[1] = system: Salmonella enterica ATCC 10708; test: BCT test (bacterial contact time), 60 s, log reduction / effect fraction; CI by Compusyn; details: Salmonella enterica, ATCC10708, 1 min, BCT 60 s, in 25% EtOH; for log reduction at 0.25 % strength: Dose 0.25 % w/v; for log reduction at 0.3 % strength: Dose 0.3 % w/v
Description: (§5) E. coli, S. aureus, P. aeruginosa, and S. enterica: Separate suspensions of the E. coli ATCC 10536 strain, S. aureus ATCC 6538 strain, Pseudomonas aeruginosa ATCC 15442 strain, and the Salmonella enterica ATCC 10708 strain were prepared as follows: Stock cultures (stored at −80° C.) were thawed and sub-cultured onto Tryptic Soy Agar (TSA) agar plate media, and incubated at 37° C. for 24 h to obtain single colonies. Single colonies of the primary cultures were streaked onto TSA plates and incubated at 37° for 24 h to generate secondary cultures. Single colonies of secondary cultures picked and used to inoculate into 50 mL of TSB broth. The inoculated TSB broth was incubated at 37° C. at 180 rpm for 18 h. Aliquots (0.5 ml) of the 18 h culture were inoculated into 50 ml of fresh TSB broth, and incubated at 37° C. at 180 rpm for 2-3 hours. When the OD600 nm value of the broth reached 1-2, cells were harvested by centrifugation at 5000 rpm for 10 min, and then resuspended in fresh TSB broth at a concentration of 1-5×10^8 CFU/mL. These suspensions were used as the bacterial suspensions for the BCT test.
as §1, §2, §3, §4

[2] = system: Pseudomonas aeruginosa ATCC 15442; test: as above; details: Pseudomonas aeruginosa, ATCC15442, 1 min, BCT 60 s, in 25% EtOH; for log reduction at 0.25 % strength: Dose 0.25 % w/v; for log reduction at 0.4 % strength: Dose 0.4 % w/v; for log reduction at 0.5 % strength: Dose 0.5 % w/v
Description: as §5, §1, §2, §3, §4

[3] = dose 0.25% w/v, read-out: Log reduction
[4] = dose 0.4% w/v, read-out: Log reduction

## Cc1ccc2c(c1)OCC(=O)CO2 [Calone, 7-methyl-2H-1,5-benzodioxepin-3(4H)-one]
S. haemolyticus 114126
  log reduction at 0.5 % strength: 0
S. haemolyticus 114126; dose 0.7% w/v
  log reduction at 0.7 % strength: 0.5
S. haemolyticus 114126; dose 0.8% w/v
  log reduction at 0.8 % strength: 2.9
S. haemolyticus 114126; dose 0.9% w/v
  log reduction at 0.9 % strength: 4.7
S. haemolyticus 114126; dose 1.2% w/v
  log reduction at 1.2 % strength: 6.9
C. xerosis ATCC 373
  log reduction at 0.5 % strength: 0.2
  log reduction at 0.75 % strength: 0.6
  log reduction at 1 % strength: 3.2
C. xerosis ATCC 373; dose 1.25% w/v
  log reduction at 1.25 % strength: 6
C. xerosis ATCC 373; dose 1.5% w/v
  log reduction at 1.5 % strength: 6.8
[1]
  log reduction at 0.25 % strength: 0.7
  log reduction at 0.3 % strength: 2.7
[1]; Dose 0.350 % w/v
  log reduction at 0.35 % strength: 4.2
[1]; Dose 0.4 % w/v
  log reduction at 0.4 % strength: 7.2
[1]; Dose 0.450 % w/v
  log reduction at 0.45 % strength: 7.8
[2]; read-out: Log reduction
  log reduction at 0.25 % strength: 0.3
  log reduction at 0.4 % strength: 4.3
[2]; Dose 0.3 % w/v, read-out: Log reduction
  log reduction at 0.3 % strength: 1
[2]; Dose 0.35 % w/v
  log reduction at 0.35 % strength: 2.7
[2]
  log reduction at 0.5 % strength: 6.9

## CC(=O)OCc1ccccc1 [Benzyl acetate, benzyl acetate]
S. haemolyticus 114126; [3]
  log reduction at 0.25 % strength: 0.2
S. haemolyticus 114126; dose 0.3% w/v, read-out: Log reduction
  log reduction at 0.3 % strength: 0.5
S. haemolyticus 114126; dose 0.35% w/v
  log reduction at 0.35 % strength: 1.3
S. haemolyticus 114126; [4]
  log reduction at 0.4 % strength: 2.5
S. haemolyticus 114126
  log reduction at 0.5 % strength: 6.2
C. xerosis ATCC 373; [3]
  log reduction at 0.25 % strength: 0
C. xerosis ATCC 373; [4]
  log reduction at 0.4 % strength: 1.1
C. xerosis ATCC 373
  log reduction at 0.5 % strength: 2.8
  log reduction at 0.75 % strength: 4.6
  log reduction at 1 % strength: 5.2
[1]; Dose 0.15 % w/v
  log reduction at 0.15 % strength: 0
[1]; Dose 0.2 % w/v
  log reduction at 0.2 % strength: 1.9
[1]; Dose 0.225 % w/v
  log reduction at 0.225 % strength: 5
[1]
  log reduction at 0.25 % strength: 6.5
  log reduction at 0.3 % strength: 7.7
[2]; Dose 0.2 % w/v, read-out: Log reduction
  log reduction at 0.2 % strength: 1.2
[2]; read-out: Log reduction
  log reduction at 0.25 % strength: 3.9
  log reduction at 0.4 % strength: 7.4
[2]; Dose 0.45 % w/v, read-out: Log reduction
  log reduction at 0.45 % strength: 7.4
[2]
  log reduction at 0.5 % strength: 7.4

From patent US12419305B2, “Antimicrobial compositions” (Firmenich SA, priority 2018, dated 2025)
